In US11826332B2, “Antimicrobial compositions and uses thereof” (Board of Regents, The University of Texas System, priority 2016, dated 2023):

Tests used:
[1] = tested on: methicillin resistant Staphylococcus aureus (MRSA); test: Disinfection of colonized urinary catheter external surface, transient contact; type: cell-based; details: in 1.5% CMC solution; transient contact exposure of a few minutes; three 1 cm catheter segments
[2] = tested on: Candida albicans (C. albicans); test: as above; type: cell-based; details: in 1.5% CMC solution; transient contact exposure of a few minutes; three 1 cm catheter segments
[3] = tested on: Escherichia coli (E. coli); test: as above; type: cell-based; details: in 1.5% CMC solution; transient contact exposure of a few minutes; three 1 cm catheter segments
[4] = tested on: vancomycin resistant Enterococcus (VRE); test: as above; type: cell-based; details: in 1.5% CMC solution; transient contact exposure of a few minutes; three 1 cm catheter segments
[5] = tested on: MRSA biofilm; test: Modified Kuhn's model, quantitative time-to-kill biofilm eradication; type: cell-based, Staphylococcus aureus; details: 60 minutes exposure
Method: In vitro antimicrobial assessments of PG, CAP, and PG+CAP solutions were conducted using an established time-to-kill biofilm eradication model, the modified Kuhn's model (Kuhn et al., 2002). Briefly, 1 cm diameter silicone discs, were placed into a 24-well tissue culture plate and incubated with donor human plasma at 37° C. for 24 hours. The plasma was then removed, replaced with 1 mL of 5.5×10^5 CFU of bacterial (MRSA, Pseudomonas aeruginosa) or yeast (Candida albicans) inocula and incubated at 37 C for an additional 24 hrs. Inoculum was removed and the discs were washed shaking at 100 rpm for 30 minutes in 0.9% sterile saline in order to remove any planktonic organisms. After washing, discs were exposed to 1 mL various disinfectant solutions and incubated at 37° C. for 30 min or 60 min. Saline flush solution was used a negative control. […] Resulting solutions were quantitatively cultured by plating 100 μL onto Muller-Hinton (for bacteria) or Sabouraud dextrose (for yeast) agar. […]
Statistical analyses: The Kruskal-Wallis test was used to determine whether there was a significant difference in the medians in any of the lock solutions tested. Pairwise comparisons were assessed using the Mann-Whitney U test to […] performance of PG+CAP and CAP lock solutions at specified time points. […]

[6] = tested on: Candida glabarata (CG) biofilm; test: Biofilm eradication model on silicone discs, time to complete eradication; type: cell-based; details: Table 2; disinfecting solutions pH 4.0-4.5; >120 = not completely eradicated within 120 minutes exposure
[7] = CRC Handbook of Chemistry and Physics; cited from earlier work
[8] = tested on: Candida albicans (CA) biofilm; test: Biofilm eradication model on silicone discs, time to complete eradication; type: cell-based; details: Table 2; disinfecting solutions pH 4.0-4.5; >120 = not completely eradicated within 120 minutes exposure
[9] = tested on: methicillin-resistant Staphylococcus aureus (MRSA) biofilm; test: as above; type: cell-based; details: Table 2; disinfecting solutions pH 4.0-4.5; >120 = not completely eradicated within 120 minutes exposure
[10] = tested on: multidrug-resistant Pseudomonas aeruginosa (PS) biofilm; test: as above; type: cell-based; details: Table 2; disinfecting solutions pH 4.0-4.5; >120 = not completely eradicated within 120 minutes exposure

| SMILES | Median recoveries, MRSA [1] | Median recoveries, C. albicans [2] | Median recoveries, E. coli [3] | Median recoveries, VRE [4] | reductions in viable cells in MRSA biofilm [5] | time to complete biofilm eradication, CG [6] | pK of CAP [7] | time to complete biofilm eradication, CA [8] | time to complete biofilm eradication, MRSA [9] | time to complete biofilm eradication, PS [10] |
| --- | --- | --- | --- | --- | --- | --- | --- | --- | --- | --- |
| OO [0.3% H2O2, hydrogen peroxide] | 0 CFU/cm of catheter | >50,000 CFU/cm of catheter | 2700 CFU/cm of catheter | >50,000 CFU/cm of catheter |  |  |  |  |  |  |
| CCCCCCCC(=O)O [0.4% Caprylic Acid (CAP), caprylic acid (octanoic acid)] |  |  |  |  | able to reduce, but not completely eradicate | 60 min | approximately 4.8 | 120 min | 120 min | 60 min |
| O=[N+]([O-])OCC(CO[N+](=O)[O-])O[N+](=O)[O-] [0.03% nitroglycerin (GTN), glyceryl trinitrate] |  |  |  |  |  | >120 min |  | >120 min | >120 min | >120 min |
